Measurements: US11026963B2, “Senolytic compositions and uses thereof” (Rubedo Life Sciences, Inc., priority 2018, dated 2021)

Tested on: Normal human fibroblasts (IMR90)
Test: Compound toxicity towards normal proliferative, senescent or quiescent fibroblasts (XTT cell viability assay)
Type: cell-based
Details: IC50 against normal, proliferating cells divided by IC50 versus senescent (doxorubicin-induced) cells, three days treatment
Method: Normal human fibroblasts (IMR90) and patient-derived β-galactosidase (GLB1) or α-fucosidase (FUCA1) deficient cells were used to determine change in cell viability after exposure to compound. Cells were cultured with DMEM and 10% heat inactivated FBS under a controlled atmosphere of 5% carbon dioxide and 5% oxygen, […] and confirmed by the absence of senescence associated β-galactosidase (SA-β-Gal) staining and the capacity to re-enter the cell cycle. Senescence was induced by treatment with doxorubicin and confirmed by SA-β-Gal positive staining and the lack of DNA replication. Cells were treated with compound for three days. Cell viability was determined by mitochondrial dehydrogenase activity (XTT assay. Cayman Chemical) at ten concentrations of the tested compound. To generate dose-response curves, data was fitted to a four-parameter Hill function and the IC50 was determined at Y=0.5 viability. The senolytic index (S.I.) for each compound was determined by dividing the IC50 against normal, proliferating cells by the IC50 versus senescent cells. Senolytic index data is shown in Table 1 with compounds having S.I.<1 (−), S.I>1 (+), S.I.>5 (++) and S.I>10 (+++).

Structure (SMILES) | Senolytic Index (S.I.)
Cn1cc(CNCC2CCN(c3ncc(C(=O)NO[C@@H]4O[C@H](CO)[C@H](O)[C@H](O)[C@H]4O)cn3)CC2)c2ccccc21 [(112), 2-(4-((((1-methyl-1H-indol-3-yl)methyl)amino)methyl)piperidin-1-yl)-N-(((2S,3R,4S,5R,6R)-3,4,5-trihydroxy-6-(hydroxymethyl)tetrahydro-2H-pyran-2-yl)oxy)pyrimidine-5-carboxamide] | + (S.I>1 (+))
CCNC(=O)c1noc(-c2cc(C(C)C)c(O)cc2O[C@@H]2O[C@H](CO)[C@H](O)[C@H](O)[C@H]2O)c1-c1ccc(CN2CCOCC2)cc1 (single isomer, unassigned) [(49)] | + (S.I>1 (+))
CCC(=O)O[C@H]1[C@H](OC(=O)CC)[C@H](ONC(=O)/C=C/c2ccc(CNCCc3c(C)[nH]c4ccccc34)cc2)O[C@@H](C)[C@H]1OC(=O)CC [(121), (2S,3R,4R,5S,6S)-2-Methyl-6-(((E)-3-(4-(((2-(2-methyl-1H-indol-3-yl)ethyl)amino)methyl)phenyl)acrylamido)oxy)tetrahydro-2H-pyran-3,4,5-triyl Tripropionate] | +++ (S.I>10 (+++))
CC(C)c1cc(C(=O)N2Cc3ccc(CN4CCN(C)CC4)cc3C2)c(O)cc1O[C@@H]1O[C@H](CO)[C@H](O)[C@H](O)[C@H]1O (single isomer, unassigned) [(46)] | − (S.I.<1 (−))
Cc1[nH]c2ccccc2c1CCNCc1ccc(/C=C/C(=O)NO[C@@H]2O[C@@H](C)[C@@H](OC(=O)C(C)C)[C@@H](OC(=O)C(C)C)[C@@H]2OC(=O)C(C)C)cc1 [(122), (2S,3R,4R,5S,6S)-2-Methyl-6-(((E)-3-(4-(((2-(2-methyl-1H-indol-3-yl)ethyl)amino)methyl)phenyl)acrylamido)oxy)tetrahydro-2H-pyran-3,4,5-triyl tris(2-methylpropanoate)] | + (S.I>1 (+))
COc1ccc(-c2nc(N3CCOCC3)c3sc(CN(C)c4ncc(C(=O)NO[C@@H]5O[C@H](COC(C)=O)[C@H](OC(C)=O)[C@H](OC(C)=O)[C@H]5OC(C)=O)cn4)cc3n2)cn1 [(123), (2R,3S,4S,5R,6S)-2-(Acetoxymethyl)-6-((2-(((2-(6-methoxypyridin-3-yl)-4-morpholinothieno[3,2-d]pyrimidin-6-yl)methyl)(methyl)amino)pyrimidine-5-carboxamido)oxy)tetrahydro-2H-pyran-3,4,5-triyl Triacetate] | + (S.I>1 (+))
COc1ccc(-c2nc(N3CCOCC3)c3sc(CN(C)c4ncc(C(=O)NO[C@@H]5O[C@@H](C)[C@@H](OC(C)=O)[C@@H](OC(C)=O)[C@@H]5OC(C)=O)cn4)cc3n2)cn1 [(125), (2S,3S,4R,5R,6S)-2-((2-(((2-(6-Methoxypyridin-3-yl)-4-morpholinothieno[3,2-d]pyrimidin-6-yl)methyl)(methyl)amino)pyrimidine-5-carboxamido)oxy)-6-methyltetrahydro-2H-pyran-3,4,5-triyl Triacetate] | ++ (S.I.>5 (++))
CC(=O)O[C@H]1[C@H](OC(C)=O)[C@H](ONC(=O)c2cnc(N3CCC(CNCc4cn(C)c5ccccc45)CC3)nc2)O[C@@H](C)[C@H]1OC(C)=O [Compound (115), (2S,3R,4R,5S,6S)-2-Methyl-6-((2-(4-((((1-methyl-1H-indol-3-yl)methyl)amino)methyl)piperidin-1-yl)pyrimidine-5-carboxamido)oxy)tetrahydro-2H-pyran-3,4,5-triyl Triacetate] | +++ (S.I>10 (+++))
Cc1[nH]c2ccccc2c1CCNCc1ccc(/C=C/C(=O)NO[C@@H]2O[C@H](CO)[C@H](O)[C@H](O)[C@H]2O)cc1 [(26), (E)-3-(4-(((2-(2-Methyl-1H-indol-3-yl)ethyl)amino)methyl)phenyl)-N-(((2S,3R,4S,5R,6R)-3,4,5-trihydroxy-6-(hydroxymethyl)tetrahydro-2H-pyran-2-yl)oxy)acrylamide] | ++ (S.I.>5 (++))
CC(=O)OC[C@H]1O[C@@H](ONC(=O)c2cnc(N3CCC(CNCc4cn(C)c5ccccc45)CC3)nc2)[C@H](OC(C)=O)[C@@H](OC(C)=O)[C@H]1OC(C)=O [(114), (2R,3S,4S,5R,6S)-2-(Acetoxymethyl)-6-((2-(4-((((1-methyl-1H-indol-3-yl)methyl)amino)methyl)piperidin-1-yl)pyrimidine-5-carboxamido)oxy)tetrahydro-2H-pyran-3,4,5-triyl Triacetate] | + (S.I>1 (+))
Cc1[nH]c2ccccc2c1CCNCc1ccc(/C=C/C(=O)NO[C@@H]2O[C@@H](C)[C@@H](O)[C@@H](O)[C@@H]2O)cc1 [(35), (E)-3-(4-(((2-(2-Methyl-1H-indol-3-yl)ethyl)amino)methyl)phenyl)-N-(((2S,3S,4R,5S,6S)-3,4,5-trihydroxy-6-methyltetrahydro-2H-pyran-2-yl)oxy)acrylamide] | + (S.I>1 (+))
CCNC(=O)c1noc(-c2cc(C(C)C)c(O[C@@H]3O[C@H](CO)[C@H](O)[C@H](O)[C@H]3O)cc2O)c1-c1ccc(CN2CCOCC2)cc1 (single isomer, unassigned) [(48)] | + (S.I>1 (+))
C[C@@H]1O[C@@H](ONC(=O)c2cnc(N3CCC(CNCc4cn(C)c5ccccc45)CC3)nc2)[C@@H](O)[C@H](O)[C@@H]1O [(120), 2-(4-((((l-Methyl-1H-indol-3-yl)methyl)amino)methyl)piperidin-1-yl)-N-(((2S,3S,4R,5S,6S)-3,4,5-trihydroxy-6-methyltetrahydro-2H-pyran-2-yl)oxy)pyrimidine-5-carboxamide] | + (S.I>1 (+))
COc1ccc(-c2nc(N3CCOCC3)c3sc(CN(C)c4ncc(C(=O)NO[C@@H]5O[C@@H](C)[C@@H](O)[C@@H](O)[C@@H]5O)cn4)cc3n2)cn1 [(126), 2-(((2-(6-methoxypyridin-3-yl)-4-morpholinothieno[3,2-d]pyrimidin-6-yl)methyl)(methyl)amino)-N-(((2S,3S,4R,5S,6S)-3,4,5-trihydroxy-6-methyltetrahydro-2H-pyran-2-yl)oxy)pyrimidine-5-carboxamide] | − (S.I.<1 (−))
CC(C)c1cc(-c2n[nH]c(=O)n2-c2ccc3c(ccn3C)c2)c(O[C@@H]2O[C@H](CO)[C@H](O)[C@H](O)[C@H]2O)cc1O (single isomer, unassigned) [(128)] | − (S.I.<1 (−))
CC(C)c1cc(-c2n[nH]c(=O)n2-c2ccc3c(ccn3C)c2)c(O)cc1O[C@@H]1O[C@H](CO)[C@H](O)[C@H](O)[C@H]1O (single isomer, unassigned) [(127)] | + (S.I>1 (+))
COc1ccc(-c2nc(N3CCOCC3)c3sc(CN(C)c4ncc(C(=O)NO[C@@H]5O[C@H](CO)[C@H](O)[C@H](O)[C@H]5O)cn4)cc3n2)cn1 [(124), 2-(((2-(6-Methoxypyridin-3-yl)-4-morpholinothieno[3,2-d]pyrimidin-6-yl)methyl)(methyl)amino)-N-(((2S,3R,4S,5R,6R)-3,4,5-trihydroxy-6-(hydroxymethyl)tetrahydro-2H-pyran-2-yl)oxy)pyrimidine-5-carboxamide] | − (S.I.<1 (−))
CC(C)c1cc(C(=O)N2Cc3ccc(CN4CCN(C)CC4)cc3C2)c(O[C@@H]2O[C@H](CO)[C@H](O)[C@H](O)[C@H]2O)cc1O [(47)] | − (S.I.<1 (−))
